Results on 4 compounds are retold here after patent publication US6416987B1, “Mutants of thymidylate synthase and uses thereof” (Sloan Kettering Institute for Cancer Research, priority 1997, dated 2002).

For orientation: inhibition means the drop in the measured response relative to a control, in per cent. Read a low inhibition as a weak effect.

Each structure is given as a SMILES string. Like-named read-outs stand apart in the source and are kept apart here.

Test [1] deals with TS-negative FSthy21 cells transfected with I108A mutant human TS cDNA. In words: Growth inhibition assay (alamar Blue), I108A transfectants. Particulars: for resistance, IC50 values greater than wild-type transfectants: I108A transfectants vs wild-type transfectants; for Ratio of IC50 values for mutant/wt cells: FdUrd. For orientation: Alamar Blue is a resazurin reagent that responds to reducing activity.
Description: (§2) The mouse TS-negative FSthy21 cells were used as the host for DNA transfections. This cell line, which is a TS-deficient derivative of mouse FM3A cells, was routinely maintained in MEM medium supplemented with 10% fetal bovine serum and 10×10^−5 M thymidine. Transfections were performed by DOTAP, using 10 μg of DNA/culture. Four days after transfection, cells were placed in selective medium, which contain no thymidine and reduced folate. Colonies having the ability to grow in the absence of thymidine were pooled and propagated as a mass culture.
(§3) Logarithmically growing suspension mouse TS-20 negative FSthy21 cells transfected with wild-type or variant human TS cDNA were seeded in 96-well plates at 1,000 cells/well in 180 μl of complete medium. […] Cell viability was measured by the alamar Blue™ assay. This method incorporates an oxidation-reduction (REDOX) indicator that both fluoresces and changes color in response to chemical reduction of growth medium resulting from cell growth. To above 96-well cultured cells, 25 μl of Alamar Blue (Alamar, Sacramento, Calif.) (10% of incubation volume) were added according to the manufacturer's instructions. The culture 96-well plates were then incubated at 37° C. for 4 hours. Viable cells induce chemical reduction of the media which results in a change in REDOX color from blue to red. The intensity of red color (and fluoresces) is proportional to the viable cells. After incubation, fluorescence is was read at 530-560 nm excitation wavelength and 590 nm emission wavelength by an automated plate reader (model EL340; Bio-Tek). Drug concentrations needed to reduce cell growth by 50% (IC50 values) were determined graphically by plotting of cell growth verses inhibitor concentration.
(§4) The effect of three antifolates and FdUrd on the growth characteristics of transfectants that stably express various TS proteins was evaluated by cytotoxicity studies. Cell growth was measured by the alamar blue assay. IC50 values were calculated as the concentration of inhibitor required to inhibit growth by 50% compared to wild-type transfected cells grown under identical conditions.

The test system of test [2] is TS-negative FSthy21 cells transfected with F225W mutant human TS cDNA. In kind it is cell-based, mouse. Particulars: for resistance, IC50 values greater than wild-type transfectants: F225W transfectants vs wild-type transfectants.
Test [3] concerns murine bone marrow cells infected with G52S mut-TS vector. In words: CFU-GM assay, marrow infected with G52S mut-TS retroviral vector. Type of test: cell-based. Particulars: 10 days. An excerpt: (§1) The following tables 15-17 summarize additional proof that these mutants confer resistance to chemotherapeutic agents by increasing the number of drug resistant CFU-GM colonies formed by murine bone marrow cells infected with retroviral vectors containing these mutant TS cDNAs.

A further test relates to Normal Bone Marrow cells. Put plainly: CFU-GM assay, Normal Bone Marrow (retroviral vector study). Particulars: 10 days. Type of test: cell-based, murine.
Description: as §1

In test [4] the test system is murine bone marrow cells infected with Wt TS vector. Put plainly: CFU-GM assay, marrow infected with Wt TS retroviral vector. In kind it is cell-based. Particulars: 10 days.
For a further test, the system named is HT1080 cells. Put plainly: EMS sensitivity of HT1080 cells (colony formation). Type of test: cell-based. Particulars: Homo sapiens, HT-1080; 400 μg/ml EMS, 18 hr exposure. The method, then:
HT1080 cells were seeded into 6-well plates (100-300 cells/well). After overnight incubation to allow cell attachment, The cells were exposed with EMS for 18 hours, washed three times, and then incubated with EMS-free medium for a further 14 days. The range of EMS concentration tested was 100 to 1000 μg of EMS/ml of culture medium. Colonies formed (50 cells) were stained with crystal violet and counted. The concentration of EMS used for the random mutagenesis experiments was determined based on the number of colonies obtained in the EMS-treated test versus EMS concentrations (Sega, 1984; Fanin et al., 1993).

Test [5] relates to TS-negative FSthy21 cells transfected with K47E mutant human TS cDNA. In kind it is cell-based, mouse. Particulars: FdUrd; K47E/clone (2) vs wild-type clone (1).
Test [6] concerns TS-negative FSthy21 cells transfected with I108F mutant human TS cDNA. In kind it is cell-based, mouse. Particulars: FdUrd; 1108F/clone (2) vs wild-type clone (1).
Test [7] concerns the target TS-negative FSthy21 cells transfected with wild-type human TS cDNA (Homo sapiens, UniProt P04818, P2L, cells depend on it). In words: Growth inhibition assay (alamar Blue), TS-negative cells transfected with wild-type human TS cDNA. Particulars: FdUrd, 7-day exposure, read-out: IC50 values. In kind it is cell-based, mouse.
The test system of test [8] is TS-negative FSthy21 cells transfected with L221S mutant human TS cDNA. In kind it is cell-based, mouse. Particulars: FdUrd; L221S/clone (2) vs wild-type clone (1).
Test [9] has as its system TS-negative FSthy21 cells transfected with L221I mutant human TS cDNA. Type of test: cell-based, mouse. Particulars: FdUrd; L221I/clone (1) vs wild-type clone (1).
The test system of test [10] is TS-negative FSthy21 cells transfected with F225L mutant human TS cDNA. Type of test: cell-based, mouse. Particulars: FdUrd; F225L/clone (3) vs wild-type clone (1).
The subject of test [11] is TS-negative FSthy21 cells transfected with G52S mutant human TS cDNA. In kind it is cell-based, mouse.
In test [12] the test system is TS-negative FSthy21 cells transfected with F225Y mutant human TS cDNA. Type of test: cell-based, mouse. Particulars: FdUrd; F225Y/clone (1) vs wild-type clone (1).
For test [13], the system named is TS-negative FSthy21 cells transfected with L221A mutant human TS cDNA. In kind it is cell-based, mouse. Particulars: FdUrd; L221A/clone (2) vs wild-type clone (1).
The test system of test [14] is TS-negative FSthy21 cells transfected with D49G mutant human TS cDNA. Type of test: cell-based, mouse.
The target in test [15] is TS-negative FSthy21 cells transfected with I108A mutant human TS cDNA (Homo sapiens, UniProt P04818, P2L/I108A, cells depend on it). Put plainly: Growth inhibition assay (alamar Blue), I108A transfectants. Particulars: read-out: IC50 values, FdUrd, 7-day exposure.
TS-negative FSthy21 cells transfected with I108A mutant human TS cDNA (Homo sapiens, UniProt P04818, P2L/I108A, cells depend on it), sequence (P04818 whole entry P2L/I108A): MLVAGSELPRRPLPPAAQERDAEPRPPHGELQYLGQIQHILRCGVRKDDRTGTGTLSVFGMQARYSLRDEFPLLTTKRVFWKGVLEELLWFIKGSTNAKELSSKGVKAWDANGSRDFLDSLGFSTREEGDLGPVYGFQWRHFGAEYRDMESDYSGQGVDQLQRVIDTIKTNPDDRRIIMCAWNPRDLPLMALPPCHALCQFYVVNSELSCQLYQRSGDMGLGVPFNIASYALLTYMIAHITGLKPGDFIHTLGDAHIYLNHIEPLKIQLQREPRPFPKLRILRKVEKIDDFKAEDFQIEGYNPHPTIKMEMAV
Description: as §2, §3, §4

TS-negative FSthy21 cells transfected with wild-type human TS cDNA, sequence (P04818 whole entry P2L): as the sequence (P04818 whole entry P2L/I108A) above, with A108I counted along it

In the case of `Cc1nc2ccc3ccc(CNc4ccc5c(c4)CN([C@@H](CCC(=O)O)C(=O)O)C5=O)cc3c2c(=O)[nH]1`, the “resistance, IC50 values greater than wild-type transfectants” value is on record as 6 fold in test [1] and 22 fold in test [2].

With `O=c1[nH]cc(F)c(=O)[nH]1` [5-FU, 5-fluorouracil], the CFU-C in test [3] (10^−5 M 5-FU) was 10; in test [3] (10^−6 M 5-FU), 117; in the test with Normal Bone Marrow cells (10^−5 M 5-FU), 0; in the test with Normal Bone Marrow cells (10^−6 M 5-FU), 16; in test [4] (10^−5 M 5-FU), 0; in [4] (10^−6 M 5-FU), 91. The “CFU-C, % in parentheses” value in [3] (10^−5 M 5-FU) stood at 6%; in [3] (10^−6 M 5-FU), 72%; with Normal Bone Marrow cells (10^−6 M 5-FU) it was 10%; in [4] (10^−6 M 5-FU), 54%. The HPPCFU-C in test [3] (10^−6 M 5-FU) is recorded as 21; in the test on Normal Bone Marrow cells (10^−6 M 5-FU), 0; in test [4] (10^−6 M 5-FU), 6. Besides, the “HPPCFU-C, % in parentheses” value in test [3] (10^−6 M 5-FU) came out at 40%; in test [4] (10^−6 M 5-FU), 14%.

`CCOS(C)(=O)=O` [EMS, Ethylmethanesulfonate] gave an inhibition at 400 µg/mL with HT1080 cells of 80%.

For the compound `O=c1[nH]c(=O)n([C@H]2C[C@H](O)[C@@H](CO)O2)cc1F` [FdUrd, 5-fluoro-2′-deoxyuridine], the “Ratio of IC50 values for mutant/wt cells” value in [5] is given as 5.7(1); in test [6] it was 6.1(1); in test [8], 1.2(1); in [9], 13(1); in test [10], 5.7(1); in test [11] (FdUrd, G52S/clone (3) vs wild-type clone (1)) it was 97(1). Further, the “Ratio of IC50 values for mutant/wt cells” value in test [12] is reported as 1.0(1); in test [13] it was 4.0(1); in test [14] (FdUrd, D49G/clone (1) vs wild-type clone (1)), 26(1); in test [1] (1108A/clone (1) vs wild-type clone (2)), 16(2)^2; in [1] (1108A/clone (2) vs wild-type clone (2)), 12(2); in [1] (1108A/clone (3) vs wild-type clone (2)), 15(2). Also, in test [2] (FdUrd, F225W/clone (2) vs wild-type clone (1)), the “Ratio of IC50 values for mutant/wt cells” value is recorded as 25(1). Also, the GI50 in test [7] (wild-type/clone (1) [161-1]) was 0.029 ± 0.0003 nM; in test [7] (wild-type/clone (2) [161-2]), 0.0896 ± 0.0062 nM; in test [7] (wild-type/clone (3) [161-3]), 0.0286 ± 0.0002 nM; in test [15] (1108A/clone (1) [175-1]), 1.4 ± 0.19 nM; in test [15] (1108A/clone (2) [175-2]), 1.05 ± 0.18 nM; in test [15] (1108A/clone (3) [175-3]) it was 1.37 ± 0.25 nM. In addition, the “resistance, IC50 values greater than wild-type transfectants” value amounted to 97 fold in test [11] (G52S transfectants vs wild-type transfectants), 26 fold in [14] (D49G transfectants vs wild-type transfectants), 12 fold in test [1] and 25 fold in test [2].
